Data on nine compounds can be found in ChEMBL document CHEMBL5465560, “Selectivity Literature for EUbOPEN Chemogenomic Library” (2024).

For assay [1], the target named is Activin receptor type-1-like (Homo sapiens) (UniProt P37023). The assay is described as follows: Selectivity interaction (KinomeScan (DiscoverX)) EUB0000092b ACVRL1. Particulars: at 10 µM.
Assay [2] deals with Delta-type opioid receptor (Homo sapiens, UniProt P41143). As to the kind of experiment: Selectivity interaction (Eurofins CEREP Diversity Profile (receptors and ion channels)) EUB0000279b OPRD1. The following applies: at 10 µM.
Assay [3] has as its target Homeodomain-interacting protein kinase 3 (Homo sapiens, UniProt Q9H422). The assay is described as follows: Selectivity interaction (KinomeScan (DiscoverX)) EUB0000607a HIPK3. The following applies: at 10 µM.
The target in assay [4] is Serine/threonine-protein kinase 38-like (Homo sapiens) (UniProt Q9Y2H1). The assay is described as follows: Selectivity interaction (KinomeScan (DiscoverX)) EUB0000607a STK38L. The following applies: at 10 µM.
Assay [5] concerns the target T1, G protein-coupled receptor kinase 3 (Homo sapiens) (UniProt P35626).
T1 sequence (whole entry): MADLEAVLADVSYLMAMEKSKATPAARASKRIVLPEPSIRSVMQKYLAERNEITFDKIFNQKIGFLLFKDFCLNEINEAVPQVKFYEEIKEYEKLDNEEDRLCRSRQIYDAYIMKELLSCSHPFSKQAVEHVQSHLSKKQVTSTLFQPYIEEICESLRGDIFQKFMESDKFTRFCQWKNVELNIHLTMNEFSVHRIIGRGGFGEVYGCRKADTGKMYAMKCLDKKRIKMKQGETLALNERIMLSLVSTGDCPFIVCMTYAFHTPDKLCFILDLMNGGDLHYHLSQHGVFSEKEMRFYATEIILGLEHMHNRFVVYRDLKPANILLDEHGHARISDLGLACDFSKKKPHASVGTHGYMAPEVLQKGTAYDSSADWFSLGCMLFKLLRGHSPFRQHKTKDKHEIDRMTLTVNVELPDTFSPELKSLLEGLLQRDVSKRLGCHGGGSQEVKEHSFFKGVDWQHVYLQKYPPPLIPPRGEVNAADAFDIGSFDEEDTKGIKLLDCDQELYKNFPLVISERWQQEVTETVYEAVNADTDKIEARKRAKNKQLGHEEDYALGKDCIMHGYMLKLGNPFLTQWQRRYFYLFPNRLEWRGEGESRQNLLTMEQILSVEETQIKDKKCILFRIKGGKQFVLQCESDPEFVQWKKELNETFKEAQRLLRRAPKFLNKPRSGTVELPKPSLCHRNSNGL
The assay is described as follows: Selectivity interaction (Kinase panel (Invitrogen)) EUB0000639a ADRBK2. Particulars: at 200 nM.

The target of assay [6] is T2, Inhibitor of nuclear factor kappa-B kinase subunit epsilon (Homo sapiens) (UniProt Q14164).
T2 sequence (whole entry): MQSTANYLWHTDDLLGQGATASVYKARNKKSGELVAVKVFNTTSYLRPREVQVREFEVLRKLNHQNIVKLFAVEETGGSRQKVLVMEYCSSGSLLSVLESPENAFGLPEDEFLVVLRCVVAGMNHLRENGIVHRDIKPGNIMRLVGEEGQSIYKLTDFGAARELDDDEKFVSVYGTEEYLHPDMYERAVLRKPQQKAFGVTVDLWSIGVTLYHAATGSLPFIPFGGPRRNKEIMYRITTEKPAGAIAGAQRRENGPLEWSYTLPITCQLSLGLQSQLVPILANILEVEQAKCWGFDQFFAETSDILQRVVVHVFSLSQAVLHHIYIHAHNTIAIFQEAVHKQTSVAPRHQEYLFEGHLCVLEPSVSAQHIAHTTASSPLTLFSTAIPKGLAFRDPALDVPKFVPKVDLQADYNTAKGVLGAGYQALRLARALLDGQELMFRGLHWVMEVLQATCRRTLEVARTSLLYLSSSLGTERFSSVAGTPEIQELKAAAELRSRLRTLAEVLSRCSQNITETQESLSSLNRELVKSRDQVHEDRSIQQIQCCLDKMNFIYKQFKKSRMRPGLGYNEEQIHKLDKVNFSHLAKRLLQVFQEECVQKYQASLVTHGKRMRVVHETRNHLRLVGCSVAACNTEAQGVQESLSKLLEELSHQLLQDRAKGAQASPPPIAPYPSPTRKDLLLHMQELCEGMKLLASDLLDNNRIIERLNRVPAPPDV
As to the kind of experiment: Selectivity interaction (ActivX KiNativ screen (kinase selectivity in THP-1 cell lysates)) EUB0000639a IKBKE. The format is subcellular. The following applies: lysate.

Another assay concerns the target Activated CDC42 kinase 1 (Homo sapiens, UniProt Q07912). The assay is described as follows: Selectivity interaction (KinomeScan (DiscoverX)) EUB0000229b TNK2. Particulars: at 10 µM.
In assay [7] the target is Glycogen synthase kinase-3 beta (Homo sapiens, UniProt P49841). The assay is described as follows: Selectivity interaction (KinomeScan (DiscoverX)) EUB0000595a GSK3B. Particulars: at 10 µM.
Assay [8] concerns the target Serine/threonine-protein kinase 32A (Homo sapiens) (UniProt Q8WU08). As to the kind of experiment: Selectivity interaction (KinomeScan (DiscoverX)) EUB0001619a STK32A. Particulars: at 1 µM.
The target of assay [9] is Casein kinase I isoform alpha (Homo sapiens, UniProt P48729). The assay is described as follows: Selectivity interaction (Kinase panel (literature)) EUB0001199aCl CSNK1A1. The following applies: at 1 µM.
Assay [10] addresses T3, Cyclin-dependent kinase 11A (Homo sapiens) (UniProt Q9UQ88).
T3 sequence (whole entry): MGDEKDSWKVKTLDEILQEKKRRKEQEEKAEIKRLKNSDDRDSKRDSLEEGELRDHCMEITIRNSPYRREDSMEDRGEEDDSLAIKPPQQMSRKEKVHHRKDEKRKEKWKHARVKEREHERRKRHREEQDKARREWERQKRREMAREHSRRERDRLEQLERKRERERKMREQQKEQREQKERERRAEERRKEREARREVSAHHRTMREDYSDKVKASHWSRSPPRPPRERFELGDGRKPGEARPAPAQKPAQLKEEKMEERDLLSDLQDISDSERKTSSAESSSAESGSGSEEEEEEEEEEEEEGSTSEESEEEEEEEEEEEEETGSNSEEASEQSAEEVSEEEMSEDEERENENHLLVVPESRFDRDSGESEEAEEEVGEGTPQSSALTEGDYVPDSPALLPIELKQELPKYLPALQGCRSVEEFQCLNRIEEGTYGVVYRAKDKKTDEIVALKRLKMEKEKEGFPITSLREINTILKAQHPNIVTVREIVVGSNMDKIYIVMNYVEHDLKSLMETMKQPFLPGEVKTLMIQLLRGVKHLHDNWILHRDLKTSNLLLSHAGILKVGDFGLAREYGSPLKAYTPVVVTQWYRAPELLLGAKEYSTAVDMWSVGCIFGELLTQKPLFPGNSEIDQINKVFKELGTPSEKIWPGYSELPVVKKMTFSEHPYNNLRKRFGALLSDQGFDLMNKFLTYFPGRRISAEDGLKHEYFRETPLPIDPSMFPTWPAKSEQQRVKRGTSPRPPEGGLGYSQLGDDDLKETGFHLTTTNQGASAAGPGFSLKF
The assay is described as follows: Selectivity interaction (Kinase panel (KiNativ target engagement assay in Jurkat cells)) EUB0001635a CDK11A. The format is cell-based. The following applies: Selectivity number of off-targets 0.0, Selectivity number of targets 233.0, Source Knowledge https://www.sciencedirect.com/science/article/pii/S2451945619300674?via%3Dihub, at 1 µM.

Chain of Activin receptor type-1-like (Homo sapiens) (P37023 whole entry): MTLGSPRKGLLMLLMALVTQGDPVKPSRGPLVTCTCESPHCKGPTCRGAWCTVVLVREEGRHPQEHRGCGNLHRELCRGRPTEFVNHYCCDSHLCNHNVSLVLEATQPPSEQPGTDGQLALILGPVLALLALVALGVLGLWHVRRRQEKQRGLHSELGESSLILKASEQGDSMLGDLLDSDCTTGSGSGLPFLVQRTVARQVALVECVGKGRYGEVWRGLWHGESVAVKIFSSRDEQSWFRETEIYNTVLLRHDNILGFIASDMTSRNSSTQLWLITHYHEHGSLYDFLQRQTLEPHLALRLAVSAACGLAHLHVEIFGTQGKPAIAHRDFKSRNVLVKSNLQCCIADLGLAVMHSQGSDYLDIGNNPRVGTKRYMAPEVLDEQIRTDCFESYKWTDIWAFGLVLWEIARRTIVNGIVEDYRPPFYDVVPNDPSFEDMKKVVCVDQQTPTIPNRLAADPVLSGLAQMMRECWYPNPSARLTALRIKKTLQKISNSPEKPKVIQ
Chain of Serine/threonine-protein kinase 38-like (Homo sapiens) (Q9Y2H1 2-464 limits assumed): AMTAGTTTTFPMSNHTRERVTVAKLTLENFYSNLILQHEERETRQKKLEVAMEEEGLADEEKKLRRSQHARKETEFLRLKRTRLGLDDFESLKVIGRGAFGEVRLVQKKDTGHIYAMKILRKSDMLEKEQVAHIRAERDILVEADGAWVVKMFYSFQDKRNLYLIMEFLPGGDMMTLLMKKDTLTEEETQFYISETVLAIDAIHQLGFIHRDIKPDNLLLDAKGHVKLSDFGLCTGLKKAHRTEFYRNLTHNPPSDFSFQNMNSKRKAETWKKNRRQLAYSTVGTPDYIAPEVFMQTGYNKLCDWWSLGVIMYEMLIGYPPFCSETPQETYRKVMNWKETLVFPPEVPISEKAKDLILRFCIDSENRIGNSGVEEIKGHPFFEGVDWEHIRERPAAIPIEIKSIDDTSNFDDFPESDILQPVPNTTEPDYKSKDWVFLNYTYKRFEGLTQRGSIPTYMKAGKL
Chain of Activated CDC42 kinase 1 (Q07912 whole entry, looked up): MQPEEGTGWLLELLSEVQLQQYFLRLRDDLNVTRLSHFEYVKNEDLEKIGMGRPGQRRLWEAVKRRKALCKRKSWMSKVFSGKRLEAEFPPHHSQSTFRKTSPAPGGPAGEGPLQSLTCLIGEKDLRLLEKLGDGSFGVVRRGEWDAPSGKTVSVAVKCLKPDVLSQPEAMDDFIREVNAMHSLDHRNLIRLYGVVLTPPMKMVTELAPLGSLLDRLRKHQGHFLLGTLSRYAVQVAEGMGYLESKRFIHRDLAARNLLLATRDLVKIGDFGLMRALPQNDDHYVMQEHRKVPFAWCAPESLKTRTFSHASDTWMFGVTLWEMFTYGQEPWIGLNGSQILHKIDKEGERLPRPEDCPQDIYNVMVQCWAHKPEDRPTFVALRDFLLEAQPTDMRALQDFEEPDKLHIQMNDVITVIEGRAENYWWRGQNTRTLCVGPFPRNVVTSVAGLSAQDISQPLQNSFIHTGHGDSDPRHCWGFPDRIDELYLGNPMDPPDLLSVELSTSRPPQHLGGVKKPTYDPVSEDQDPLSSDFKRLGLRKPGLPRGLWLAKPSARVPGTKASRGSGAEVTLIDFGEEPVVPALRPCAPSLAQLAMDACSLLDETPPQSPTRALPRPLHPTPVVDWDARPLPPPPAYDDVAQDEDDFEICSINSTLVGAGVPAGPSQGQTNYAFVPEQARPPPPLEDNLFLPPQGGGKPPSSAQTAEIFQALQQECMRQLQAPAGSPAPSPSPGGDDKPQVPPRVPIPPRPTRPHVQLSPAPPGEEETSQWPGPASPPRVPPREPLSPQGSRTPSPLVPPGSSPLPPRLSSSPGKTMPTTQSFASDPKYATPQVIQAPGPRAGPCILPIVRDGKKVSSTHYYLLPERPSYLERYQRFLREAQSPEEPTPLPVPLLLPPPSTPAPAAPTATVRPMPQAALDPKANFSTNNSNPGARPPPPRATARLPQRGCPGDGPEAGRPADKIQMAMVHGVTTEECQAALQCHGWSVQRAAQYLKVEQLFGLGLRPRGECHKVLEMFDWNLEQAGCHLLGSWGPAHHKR
Chain of Homeodomain-interacting protein kinase 3 (Q9H422 whole entry, looked up): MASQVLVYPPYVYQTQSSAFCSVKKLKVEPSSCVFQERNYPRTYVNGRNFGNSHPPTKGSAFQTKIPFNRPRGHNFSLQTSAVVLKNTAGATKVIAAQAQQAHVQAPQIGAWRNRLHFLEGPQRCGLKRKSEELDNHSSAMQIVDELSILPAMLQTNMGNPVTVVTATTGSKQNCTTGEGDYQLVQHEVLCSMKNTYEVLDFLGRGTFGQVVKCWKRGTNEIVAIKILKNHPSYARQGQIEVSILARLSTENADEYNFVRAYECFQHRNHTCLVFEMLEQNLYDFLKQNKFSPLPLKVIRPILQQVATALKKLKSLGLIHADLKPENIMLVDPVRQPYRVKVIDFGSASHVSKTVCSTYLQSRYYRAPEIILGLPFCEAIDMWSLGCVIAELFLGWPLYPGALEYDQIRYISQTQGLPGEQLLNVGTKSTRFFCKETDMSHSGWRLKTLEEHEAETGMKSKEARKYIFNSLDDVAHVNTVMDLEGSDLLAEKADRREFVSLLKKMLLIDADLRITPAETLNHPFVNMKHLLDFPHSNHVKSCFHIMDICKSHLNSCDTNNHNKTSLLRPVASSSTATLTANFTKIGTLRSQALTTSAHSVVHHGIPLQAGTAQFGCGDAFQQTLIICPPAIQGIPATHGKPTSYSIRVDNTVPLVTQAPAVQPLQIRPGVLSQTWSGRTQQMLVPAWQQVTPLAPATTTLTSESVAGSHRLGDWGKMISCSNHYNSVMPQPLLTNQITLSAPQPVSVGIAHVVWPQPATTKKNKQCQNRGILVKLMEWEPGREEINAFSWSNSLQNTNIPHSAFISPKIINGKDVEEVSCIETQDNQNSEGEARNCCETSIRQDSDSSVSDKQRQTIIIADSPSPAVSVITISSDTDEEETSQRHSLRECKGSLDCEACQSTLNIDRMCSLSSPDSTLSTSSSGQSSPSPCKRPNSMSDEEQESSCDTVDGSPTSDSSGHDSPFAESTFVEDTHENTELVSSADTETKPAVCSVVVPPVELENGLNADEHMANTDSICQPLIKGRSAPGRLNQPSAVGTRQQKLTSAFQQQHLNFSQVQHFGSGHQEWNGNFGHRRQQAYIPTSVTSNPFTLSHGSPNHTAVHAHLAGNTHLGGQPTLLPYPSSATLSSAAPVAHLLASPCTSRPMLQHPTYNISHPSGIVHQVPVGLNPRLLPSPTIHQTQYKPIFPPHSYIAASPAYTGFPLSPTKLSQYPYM
Chain of Serine/threonine-protein kinase 32A (Homo sapiens) (Q8WU08 whole entry, canonical isoform): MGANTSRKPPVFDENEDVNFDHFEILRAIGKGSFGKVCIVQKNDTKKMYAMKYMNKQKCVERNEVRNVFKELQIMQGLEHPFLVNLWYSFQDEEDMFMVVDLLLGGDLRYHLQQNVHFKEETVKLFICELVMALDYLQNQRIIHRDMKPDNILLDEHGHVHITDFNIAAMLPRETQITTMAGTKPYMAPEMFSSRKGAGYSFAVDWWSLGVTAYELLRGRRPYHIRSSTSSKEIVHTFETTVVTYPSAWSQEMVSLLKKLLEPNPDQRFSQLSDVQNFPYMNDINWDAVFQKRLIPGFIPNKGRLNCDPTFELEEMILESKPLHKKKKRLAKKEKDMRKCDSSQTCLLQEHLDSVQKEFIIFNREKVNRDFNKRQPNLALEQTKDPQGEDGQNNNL
Chain of Glycogen synthase kinase-3 beta (P49841 whole entry, looked up): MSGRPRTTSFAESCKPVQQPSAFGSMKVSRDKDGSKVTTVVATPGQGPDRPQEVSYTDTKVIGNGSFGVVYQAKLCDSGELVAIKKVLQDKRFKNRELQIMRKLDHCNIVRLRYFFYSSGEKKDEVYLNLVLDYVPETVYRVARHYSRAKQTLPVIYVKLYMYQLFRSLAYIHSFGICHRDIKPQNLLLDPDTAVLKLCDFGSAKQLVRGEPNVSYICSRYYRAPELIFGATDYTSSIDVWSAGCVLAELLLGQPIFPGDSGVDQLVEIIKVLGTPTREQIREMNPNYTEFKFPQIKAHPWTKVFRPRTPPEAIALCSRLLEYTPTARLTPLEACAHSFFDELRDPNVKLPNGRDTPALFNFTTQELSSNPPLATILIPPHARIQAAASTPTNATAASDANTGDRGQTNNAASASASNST
Chain of Delta-type opioid receptor (P41143 whole entry): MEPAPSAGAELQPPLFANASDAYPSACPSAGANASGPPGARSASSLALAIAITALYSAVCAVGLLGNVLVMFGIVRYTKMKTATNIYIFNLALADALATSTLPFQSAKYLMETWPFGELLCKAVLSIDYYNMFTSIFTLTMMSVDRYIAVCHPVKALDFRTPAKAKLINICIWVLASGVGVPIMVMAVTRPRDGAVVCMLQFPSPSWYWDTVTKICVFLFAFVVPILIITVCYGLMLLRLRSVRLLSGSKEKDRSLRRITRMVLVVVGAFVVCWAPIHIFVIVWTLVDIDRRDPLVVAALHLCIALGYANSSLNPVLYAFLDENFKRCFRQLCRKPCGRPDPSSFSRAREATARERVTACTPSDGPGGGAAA
Chain of Casein kinase I isoform alpha (P48729 2-337 limits assumed): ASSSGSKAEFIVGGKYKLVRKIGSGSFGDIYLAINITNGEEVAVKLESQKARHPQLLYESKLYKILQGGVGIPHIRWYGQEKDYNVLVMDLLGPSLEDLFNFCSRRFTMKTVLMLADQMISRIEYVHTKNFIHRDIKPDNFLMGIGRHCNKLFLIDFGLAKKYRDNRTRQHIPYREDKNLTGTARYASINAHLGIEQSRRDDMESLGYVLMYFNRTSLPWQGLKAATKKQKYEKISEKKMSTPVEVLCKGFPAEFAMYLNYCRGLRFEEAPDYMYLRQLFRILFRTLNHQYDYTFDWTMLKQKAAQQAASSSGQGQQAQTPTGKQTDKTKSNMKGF

In assay [1], `CCC(=O)N1CCN(c2ccc(-n3c(=O)ccc4cnc5ccc(-c6cnc7ccccc7c6)cc5c43)cc2C(F)(F)F)CC1` registered a % of control of 83%. In assay [2], `CC(=O)c1cc(-c2ccccc2OCC2CC2)c2ncccn12` displayed a % of control of 91%.

Turning to `CNC(=O)Nc1ccc(-c2nc(N3CC4CCC(C3)O4)c3cnn(C4CCC5(CC4)OCCO5)c3n2)cc1`, the figures for the % of control in [3] and in assay [4] were 42% and 100%, respectively. Take `CC[C@@H]1[C@H](F)C(=O)N[C@@H]1COc1nccc2cc(C(N)=O)c(OC)cc12` [ZIMLOVISERTIB]: the % of inhibition in assay [5] amounted to 2.95%; in assay [6] (at 0.01 µM), 20.6%; in assay [6] (at 0.04 µM), 7.3%; in assay [6] (at 0.2 µM), 30.8%; in assay [6] (at 1 µM) it was 60.2%; in assay [6] (at 5 µM) it was 82.3%. Regarding `COc1cc(N(C)c2ccnc3ccc(C(F)(F)F)cc23)cc(OC)c1OC`, the % binding at Activated CDC42 kinase 1 stood at 89%. Turning to `COCC(=O)NC/C=C/c1ccc2ncnc(Nc3ccc(Oc4ccc(C)nc4)c(C)c3)c2c1` [CP-724714], the % of control in assay [7] turned out to be 68%. Turning to `N#Cc1cccc(-c2c[nH]c3ncnc(N4CCOCC4)c23)c1`, the % of control in assay [8] stood at 100%.

As to `CN1Cc2nccc(-c3cn(C)nc3-c3ccc(F)cc3)c2C1=O`, the % of inhibition in [9] was determined as 51%.

Consider `C=CC(=O)Nc1ccc(C(=O)Nc2[nH]nc3c2CN(C(=O)N[C@H](CN(C)C)c2ccccc2)C3(C)C)cc1`, for which the % of engagement in [10] is -0.8%.
